Assay results published in patent publication US20140163012A1, “PYRIDO-/AZEPINO-BENZOFURAN AND PYRIDO-/AZEPINO-BENZOTHIOPHENE MCH-1 ANTAGONISTS, METHODS OF MAKING, AND USE THEREOF” (Albany Molecular Research, Inc., priority 2012, published 2014).
Where a name gives a salt, the structure may show the parent alone.

biological target: human MCH-1 receptor (Homo sapiens, UniProt Q99705); experiment: Binding assay for human melanin-concentrating hormone (MCH-1) receptor, radioligand displacement on CHO-K1 cell membranes
Sequence (Q99705 whole entry): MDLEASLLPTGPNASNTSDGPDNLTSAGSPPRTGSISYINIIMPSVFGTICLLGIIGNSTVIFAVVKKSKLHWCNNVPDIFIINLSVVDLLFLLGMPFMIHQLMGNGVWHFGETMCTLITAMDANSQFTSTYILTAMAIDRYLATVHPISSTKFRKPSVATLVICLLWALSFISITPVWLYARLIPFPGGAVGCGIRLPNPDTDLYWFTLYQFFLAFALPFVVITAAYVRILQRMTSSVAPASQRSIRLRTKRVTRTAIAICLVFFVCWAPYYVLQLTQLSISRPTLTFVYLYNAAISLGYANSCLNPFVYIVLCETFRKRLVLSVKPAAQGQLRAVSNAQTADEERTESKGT
Experimental: Nonspecific binding was determined in the presence of 50 μM 1-(5-(4-cyanophenyl)bicyclo[3.1.0]hexan-2-yl)-3-(4-fluoro-3-(trifluoromethyl)phenyl)-1-(3-(4-methylpiperazin-1-yl)propyl)urea. […] The filters were counted for radioactivity in a liquid scintillation counter (Tri-Carb 2100TR, Packard) using a scintillation cocktail (Ultima Gold MV, Perkin Elmer).
The results are expressed as a percent inhibition of the control radioligand specific binding. The IC50 value (concentration causing a half-maximal inhibition of control specific binding) and Hill coefficient (nH) were determined by non-linear regression analysis of the competition curve using Hill equation curve fitting.

Going from `O=c1cc(OCc2ccccc2)ccn1-c1ccc2c3c(oc2c1)CNCC3` [Example 2, 4-(Benzyloxy)-1-(1,2,3,4-tetrahydrobenzofuro[2,3-c]pyridin-7-yl)pyridin-2(1H)-one hydrochloride] to `O=c1cc(OCc2ccccc2)ccn1-c1ccc2c3c(oc2c1)CCNC3` [Example 6, 4-(Benzyloxy)-1-(1,2,3,4-tetrahydrobenzofuro[3,2-c]pyridin-7-yl)pyridin-2(1H)-one hydrochloride], the Ki falls from 23 nM to 3.3 nM (7-fold). The second binds more tightly here.

Compared with `O=c1cc(OCc2ccc(F)cn2)ccn1-c1ccc2c3c(oc2c1)CNCC3` [Example 3, 4-((5-Fluoropyridin-2-yl)methoxy)-1-(1,2,3,4-tetrahydrobenzofuro[2,3-c]pyridin-7-yl)pyridin-2(1H)-one hydrochloride], `O=c1cc(OCc2ccc(F)cn2)ccn1-c1ccc2c3c(oc2c1)CCNC3` [Example 7, 4-((5-Fluoropyridin-2-yl)methoxy)-1-(1,2,3,4-tetrahydrobenzofuro[3,2-c]pyridin-7-yl)pyridin-2(1H)-one hydrochloride] is 8.1-fold lower in Ki: 59 nM for the first, 7.3 nM for the second.

Going from `O=c1cc(-c2ccc(C(F)(F)F)nc2)ccn1-c1ccc2c3c(oc2c1)CNCC3` [Example 4, 1′-(1,2,3,4-Tetrahydrobenzofuro[2,3-c]pyridin-7-yl)-6-(trifluoromethyl)-[3,4′-bipyridin]-2′(1′H)-one hydrochloride] to `O=c1cc(-c2ccc(C(F)(F)F)nc2)ccn1-c1ccc2c3c(oc2c1)CCNC3` [Example 5, 1′-(1,2,3,4-Tetrahydrobenzofuro[3,2-c]pyridin-7-yl)-6-(trifluoromethyl)-[3,4′-bipyridin]-2′(1′H)-one hydrochloride], the Ki falls from 1310 nM to 56 nM (23-fold).

Compared with `C[C@@H]1Cc2oc3cc(-n4ccc(OCc5ccccn5)cc4=O)ccc3c2CN1` [Example 8, (R)-1-(3-Methyl-1,2,3,4-tetrahydrobenzofuro[3,2-c]pyridin-7-yl)-4-(pyridin-2-ylmethoxy)pyridin-2(1H)-one hydrochloride], `C[C@@H]1Cc2oc3cc(-n4ccc(OCc5ccc(F)cn5)cc4=O)ccc3c2CN1` [Example 9, (R)-4-((5-Fluoropyridin-2-yl)methoxy)-1-(3-methyl-1,2,3,4-tetrahydrobenzofuro[3,2-c]pyridin-7-yl)pyridin-2(1H)-one] is 5.7-fold lower in Ki: 57 nM for the first, 10 nM for the second. The second binds more tightly here.

`O=c1cc(OCc2ccc(Cl)cn2)ccn1-c1ccc2c3c(oc2c1)CCNC3` [Example 10, 4-((5-Chloropyridin-2-yl)methoxy)-1-(1,2,3,4-tetrahydrobenzofuro[3,2-c]pyridin-7-yl)pyridin-2(1H)-one hydrochloride] and `O=c1cc(OCc2ccc(Cl)cn2)ccn1-c1ccc2c3c(sc2c1)CNCC3` [Example 13, 4-((5-Chloropyridin-2-yl)methoxy)-1-(1,2,3,4-tetrahydrobenzothieno[2,3-c]pyridin-7-yl)pyridin-2(1H)-one hydrochloride] are within 1.5-fold of each other in Ki: 3.3 nM for the first, 3.1 nM for the second.

Going from `O=c1cc(-c2ccc(C(F)(F)F)cn2)ccn1-c1ccc2c3c(oc2c1)CCNC3` [Example 11, 1′-(1,2,3,4-Tetrahydrobenzofuro[3,2-c]pyridin-7-yl)-5-(trifluoromethyl)-[2,4′-bipyridin]-2′(1′H)-one hydrochloride] to `O=c1cc(-c2ccc(C(F)(F)F)cn2)ccn1-c1ccc2c3c(sc2c1)CNCC3` [Example 12, 1-(1,2,3,4-Tetrahydrobenzothieno[2,3-c]pyridin-7-yl)-4-(5-(trifluoromethyl)pyridin-2-yl)pyridin-2(1H)-one hydrochloride], the Ki falls from 166 nM to 93 nM (1.8-fold).

Going from `O=c1cc(OCc2ccc(F)cn2)ccn1-c1ccc2c3c(sc2c1)CNCC3` [Example 14, 4-((5-Fluoropyridin-2-yl)methoxy)-1-(1,2,3,4-tetrahydrobenzothieno[2,3-c]pyridin-7-yl)pyridin-2(1H)-one hydrochloride] to `O=c1cc(OCc2ccc(F)cn2)ccn1-c1ccc2c3c(sc2c1)CNCCC3` [Example 18, 4-((5-Fluoropyridin-2-yl)methoxy)-1-(2,3,4,5-tetrahydro-1H-benzothieno[2,3-c]azepin-8-yl)pyridin-2(1H)-one], the Ki rises from 6.2 nM to 12 nM (1.9-fold).

Going from `O=c1cc(OCc2ccccc2)ccn1-c1ccc2c3c(sc2c1)CNCC3` [Example 15, 4-(Benzyloxy)-1-(1,2,3,4-tetrahydrobenzothieno[2,3-c]pyridin-7-yl)pyridin-2(1H)-one] to `O=c1cc(OCc2ccccc2)ccn1-c1ccc2c3c(sc2c1)CNCCC3` [Example 19, 4-(Benzyloxy)-1-(2,3,4,5-tetrahydro-1H-benzothieno[2,3-c]azepin-8-yl)pyridin-2(1H)-one], the Ki rises from 4 nM to 8.2 nM (2-fold). The first binds more tightly here.

Compared with `O=c1cc(-c2ccc(C(F)(F)F)cn2)ccn1-c1ccc2c3c(sc2c1)CNCCC3` [Example 17, 1-(2,3,4,5-Tetrahydro-1H-benzothieno[2,3-c]azepin-8-yl)-4-(5-(trifluoromethyl)pyridin-2-yl)pyridin-2(1H)-one], `O=c1cc(OCc2ccc(F)cn2)ccn1-c1ccc2c3c(sc2c1)CCNCC3` [Example 21, 4-((5-Fluoropyridin-2-yl)methoxy)-1-(2,3,4,5-tetrahydro-1H-benzothieno[2,3-d]azepin-8-yl)pyridin-2(1H)-one] is 240-fold lower in Ki: 927 nM for the first, 3.8 nM for the second. The second binds more tightly here.

`O=c1cc(OCc2ccc(Cl)cn2)ccn1-c1ccc2c3c(sc2c1)CCNCC3` [Example 20, 4-((5-Chloropyridin-2-yl)methoxy)-1-(2,3,4,5-tetrahydro-1H-benzothieno[2,3-d]azepin-8-yl)pyridin-2(1H)-one] and `O=c1cc(OCc2ccccc2)ccn1-c1ccc2c3c(sc2c1)CCNCC3` [Example 22, 4-(Benzyloxy)-1-(2,3,4,5-tetrahydro-1H-benzothieno[2,3-d]azepin-8-yl)pyridin-2(1H)-one] are within 1.5-fold of each other in Ki: 3.8 nM for the first, 4.4 nM for the second.

`CN1CCc2oc3cc(-n4ccc(OCc5ccc(F)cn5)cc4=O)ccc3c2C1` [Example 23, 4-((5-Fluoropyridin-2-yl)methoxy)-1-(2-methyl-1,2,3,4-tetrahydrobenzofuro[3,2-c]pyridin-7-yl)pyridin-2(1H)-one hydrochloride] and `CCN1CCc2oc3cc(-n4ccc(OCc5ccc(F)cn5)cc4=O)ccc3c2C1` [Example 24, 1-(2-Ethyl-1,2,3,4-tetrahydrobenzofuro[3,2-c]pyridin-7-yl)-4-((5-fluoropyridin-2-yl)methoxy)pyridin-2(1H)-one] are within 1.5-fold of each other in Ki: 11 nM for the first, 13 nM for the second.

Compared with `CC(=O)N1CCc2oc3cc(-n4ccc(OCc5ccccc5)cc4=O)ccc3c2C1` [Example 25, 1-(2-Acetyl-1,2,3,4-tetrahydrobenzofuro[3,2-c]pyridin-7-yl)-4-(benzyloxy)pyridin-2(1H)-one], `CN1CCc2oc3cc(-n4ccc(OCc5ccccc5)cc4=O)ccc3c2C1` [Example 27, 4-(Benzyloxy)-1-(2-methyl-1,2,3,4-tetrahydrobenzofuro[3,2-c]pyridin-7-yl)pyridin-2(1H)-one hydrochloride] is 2.8-fold lower in Ki: 23 nM for the first, 8.1 nM for the second.

Compared with `CCN1CCc2oc3cc(-n4ccc(OCc5ccccc5)cc4=O)ccc3c2C1` [Example 26, 4-(Benzyloxy)-1-(2-ethyl-1,2,3,4-tetrahydrobenzofuro[3,2-c]pyridin-7-yl)pyridin-2(1H)-one], `CC(C)N1CCc2oc3cc(-n4ccc(OCc5ccc(F)cn5)cc4=O)ccc3c2C1` [Example 28, 4-((5-Fluoropyridin-2-yl)methoxy)-1-(2-isopropyl-1,2,3,4-tetrahydrobenzofuro[3,2-c]pyridin-7-yl)pyridin-2(1H-one hydrochloride] is 2-fold higher in Ki: 4.9 nM for the first, 9.8 nM for the second. The first binds more tightly here.
